The values that follow come from publication PMC7714403 (JCI Insight, 2020).

Holding throughout (assay): KiNativ, MOLM13 live cells
What all share (type): cell-based

One test has as its target CCRK (Homo sapiens, UniProt Q8IZL9). As to conditions: MOLM-13; 100 nM, 2 hours; Lys2; read-out: Inhibition vs DMSO. As for the experimental part:
(§1) Samples were analyzed by KiNativ in situ kinase profiling by ActivX Biosciences.

A further test deals with T1, MAP2K3 (Homo sapiens, UniProt P46734).
T1 sequence (P46734 1-347): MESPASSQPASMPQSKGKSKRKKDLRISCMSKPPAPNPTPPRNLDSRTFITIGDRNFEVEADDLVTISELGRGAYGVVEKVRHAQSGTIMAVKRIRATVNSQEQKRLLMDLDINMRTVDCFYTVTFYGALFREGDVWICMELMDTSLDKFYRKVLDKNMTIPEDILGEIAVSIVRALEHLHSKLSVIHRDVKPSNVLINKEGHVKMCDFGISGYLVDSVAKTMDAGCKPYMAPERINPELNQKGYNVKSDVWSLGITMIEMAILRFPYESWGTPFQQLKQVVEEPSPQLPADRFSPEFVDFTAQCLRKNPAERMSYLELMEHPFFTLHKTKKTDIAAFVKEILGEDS
Particulars: MOLM-13, 2 h, 100 nM. As for the experimental part: as §1

The target of another test is CDC2 (Homo sapiens, UniProt P06493). Particulars: MOLM-13, 2 h, 100 nM. The method, then: as §1
Sequence of CDC2 (P06493 whole entry): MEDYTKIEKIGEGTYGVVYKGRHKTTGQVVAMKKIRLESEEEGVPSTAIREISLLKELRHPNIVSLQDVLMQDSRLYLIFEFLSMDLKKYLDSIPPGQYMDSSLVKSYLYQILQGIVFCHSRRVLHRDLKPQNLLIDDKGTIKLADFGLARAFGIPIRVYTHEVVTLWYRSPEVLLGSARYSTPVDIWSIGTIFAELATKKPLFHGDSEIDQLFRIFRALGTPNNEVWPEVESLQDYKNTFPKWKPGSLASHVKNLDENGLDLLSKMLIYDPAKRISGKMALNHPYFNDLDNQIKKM
In a further test the target is PAK2 (Homo sapiens, UniProt Q13177). As to conditions: MOLM-13, 2 h, 100 nM. The method, then: as §1
Sequence of PAK2 (Q13177 whole entry): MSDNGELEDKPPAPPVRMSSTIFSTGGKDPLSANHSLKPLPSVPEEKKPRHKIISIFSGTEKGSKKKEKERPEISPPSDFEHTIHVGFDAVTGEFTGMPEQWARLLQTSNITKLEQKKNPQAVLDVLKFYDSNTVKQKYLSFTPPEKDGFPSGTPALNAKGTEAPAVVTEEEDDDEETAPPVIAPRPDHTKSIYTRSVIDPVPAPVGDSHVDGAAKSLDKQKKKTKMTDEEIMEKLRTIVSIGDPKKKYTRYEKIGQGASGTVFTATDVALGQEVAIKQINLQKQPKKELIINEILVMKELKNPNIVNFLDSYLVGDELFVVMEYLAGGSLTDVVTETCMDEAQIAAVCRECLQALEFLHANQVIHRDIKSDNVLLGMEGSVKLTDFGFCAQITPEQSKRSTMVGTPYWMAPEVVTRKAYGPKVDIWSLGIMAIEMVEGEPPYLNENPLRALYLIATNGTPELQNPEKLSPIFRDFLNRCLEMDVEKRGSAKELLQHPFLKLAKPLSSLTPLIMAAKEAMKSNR
Another test deals with KSR1 (Homo sapiens, UniProt Q8IVT5). As to conditions: MOLM-13; 100 nM, 2 hours; Activation Loop; read-out: Inhibition vs DMSO. The method, then: as §1
Sequence of KSR1 (Q8IVT5 whole entry): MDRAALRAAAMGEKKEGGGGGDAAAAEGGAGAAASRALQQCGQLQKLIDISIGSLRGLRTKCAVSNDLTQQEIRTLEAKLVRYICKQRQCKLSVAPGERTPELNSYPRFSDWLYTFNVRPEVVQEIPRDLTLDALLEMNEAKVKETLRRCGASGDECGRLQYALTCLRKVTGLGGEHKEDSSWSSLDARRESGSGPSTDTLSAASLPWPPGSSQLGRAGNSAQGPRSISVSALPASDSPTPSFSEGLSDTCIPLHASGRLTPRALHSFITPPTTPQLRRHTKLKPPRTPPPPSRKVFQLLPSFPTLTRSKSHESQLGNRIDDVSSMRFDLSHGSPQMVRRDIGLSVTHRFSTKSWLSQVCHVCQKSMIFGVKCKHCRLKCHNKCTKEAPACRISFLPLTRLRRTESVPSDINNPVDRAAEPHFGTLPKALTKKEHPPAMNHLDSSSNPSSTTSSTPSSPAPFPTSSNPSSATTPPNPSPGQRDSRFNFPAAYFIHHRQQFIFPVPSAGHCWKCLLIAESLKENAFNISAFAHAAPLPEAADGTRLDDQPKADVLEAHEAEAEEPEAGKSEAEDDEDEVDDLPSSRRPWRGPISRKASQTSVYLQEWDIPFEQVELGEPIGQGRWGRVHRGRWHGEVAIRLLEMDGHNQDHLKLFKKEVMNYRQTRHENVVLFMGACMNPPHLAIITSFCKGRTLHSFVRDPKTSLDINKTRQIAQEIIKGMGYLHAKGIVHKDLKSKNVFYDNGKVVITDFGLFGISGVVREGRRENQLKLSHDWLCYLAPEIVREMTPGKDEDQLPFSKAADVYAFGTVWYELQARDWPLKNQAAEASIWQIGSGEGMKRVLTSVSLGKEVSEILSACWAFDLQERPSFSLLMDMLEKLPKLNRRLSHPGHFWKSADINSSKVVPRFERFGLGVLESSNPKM
The next test deals with MAP3K5 (Homo sapiens, UniProt Q99683). As to conditions: MOLM-13; 100 nM, 2 hours; Lys2; read-out: Inhibition vs DMSO. As for the experimental part:
as §1

Another test concerns the target CaMK2g (Homo sapiens, UniProt Q13555). Particulars: MOLM-13; 100 nM, 2 hours; Lys1; read-out: Inhibition vs DMSO. The method, then:
as §1

The target in another test is PKR (Homo sapiens, UniProt P19525). As to conditions: 100 nM, 2 hours. The method, then:
as §1

The target in a further test is MAP2K7 (Homo sapiens, UniProt O14733). Particulars: 100 nM, 2 hours; Lys2. As for the experimental part:
as §1

The target in the next test is CaMKK2 (Homo sapiens, UniProt Q96RR4). Particulars: MOLM-13, 2 h, 100 nM. The method, then:
as §1

The target in the next test is T2, GCK (Homo sapiens, UniProt Q12851).
T2 sequence (Q12851 1-820): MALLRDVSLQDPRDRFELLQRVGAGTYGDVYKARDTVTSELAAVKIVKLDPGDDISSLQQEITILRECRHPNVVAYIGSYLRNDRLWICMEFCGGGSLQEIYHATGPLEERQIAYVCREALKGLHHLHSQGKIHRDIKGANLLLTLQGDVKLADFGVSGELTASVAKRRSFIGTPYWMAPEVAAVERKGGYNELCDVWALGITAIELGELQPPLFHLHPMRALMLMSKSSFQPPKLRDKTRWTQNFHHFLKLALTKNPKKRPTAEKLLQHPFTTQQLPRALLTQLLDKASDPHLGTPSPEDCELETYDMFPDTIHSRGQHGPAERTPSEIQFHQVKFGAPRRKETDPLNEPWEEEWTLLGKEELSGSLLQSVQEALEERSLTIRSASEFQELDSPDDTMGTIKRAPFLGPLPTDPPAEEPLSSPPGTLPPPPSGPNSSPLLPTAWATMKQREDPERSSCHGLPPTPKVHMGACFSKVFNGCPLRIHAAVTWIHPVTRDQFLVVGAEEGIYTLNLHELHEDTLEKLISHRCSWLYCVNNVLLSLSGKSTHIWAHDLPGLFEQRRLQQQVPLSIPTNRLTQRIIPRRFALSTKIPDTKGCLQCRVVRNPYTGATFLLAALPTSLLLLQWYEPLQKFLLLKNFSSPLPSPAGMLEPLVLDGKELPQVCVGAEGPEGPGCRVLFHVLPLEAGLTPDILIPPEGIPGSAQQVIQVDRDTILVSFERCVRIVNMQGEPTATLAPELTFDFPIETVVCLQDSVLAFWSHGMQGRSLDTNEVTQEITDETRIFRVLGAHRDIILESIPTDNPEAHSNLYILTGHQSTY
Particulars: MOLM-13; 100 nM, 2 hours; Lys2; read-out: Inhibition vs DMSO. The method, then: as §1

Where [1] appears, read: Lys1, read-out: Inhibition vs DMSO.
[2] abbreviates: Lys2, read-out: Inhibition vs DMSO.

Read-outs that look alike come from different tables or passages of the source.

Sequence of PKR (P19525 whole entry): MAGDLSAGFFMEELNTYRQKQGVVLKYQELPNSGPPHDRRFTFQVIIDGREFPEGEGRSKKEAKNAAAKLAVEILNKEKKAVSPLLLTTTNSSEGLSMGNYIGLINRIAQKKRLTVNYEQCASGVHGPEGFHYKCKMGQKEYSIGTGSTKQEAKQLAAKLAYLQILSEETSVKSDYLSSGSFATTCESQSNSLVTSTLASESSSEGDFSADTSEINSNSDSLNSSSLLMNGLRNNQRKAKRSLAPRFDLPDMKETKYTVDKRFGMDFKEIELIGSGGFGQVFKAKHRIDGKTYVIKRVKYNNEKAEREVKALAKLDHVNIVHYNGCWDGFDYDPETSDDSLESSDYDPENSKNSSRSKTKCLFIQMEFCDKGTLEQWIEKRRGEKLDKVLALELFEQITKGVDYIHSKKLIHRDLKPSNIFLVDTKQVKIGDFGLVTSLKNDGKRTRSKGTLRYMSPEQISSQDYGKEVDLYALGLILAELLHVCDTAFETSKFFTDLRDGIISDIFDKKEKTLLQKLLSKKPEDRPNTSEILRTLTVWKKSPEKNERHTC
Sequence of CaMKK2 (Q96RR4 whole entry): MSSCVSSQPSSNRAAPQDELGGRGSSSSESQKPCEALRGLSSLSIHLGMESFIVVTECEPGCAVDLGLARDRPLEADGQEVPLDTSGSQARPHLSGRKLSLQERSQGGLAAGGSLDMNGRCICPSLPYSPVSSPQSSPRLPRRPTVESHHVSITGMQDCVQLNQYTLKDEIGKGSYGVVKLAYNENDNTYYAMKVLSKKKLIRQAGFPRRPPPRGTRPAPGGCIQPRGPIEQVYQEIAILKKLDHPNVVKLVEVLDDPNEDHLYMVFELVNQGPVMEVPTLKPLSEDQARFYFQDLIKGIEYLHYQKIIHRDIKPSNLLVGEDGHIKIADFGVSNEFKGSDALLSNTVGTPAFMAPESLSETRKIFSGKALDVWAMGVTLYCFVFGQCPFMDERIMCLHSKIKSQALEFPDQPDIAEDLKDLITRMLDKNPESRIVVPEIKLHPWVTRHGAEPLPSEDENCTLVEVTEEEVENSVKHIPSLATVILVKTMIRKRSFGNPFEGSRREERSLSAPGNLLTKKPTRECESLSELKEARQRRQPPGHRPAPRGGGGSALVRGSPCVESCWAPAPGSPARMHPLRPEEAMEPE
Sequence of CaMK2g (Q13555 whole entry): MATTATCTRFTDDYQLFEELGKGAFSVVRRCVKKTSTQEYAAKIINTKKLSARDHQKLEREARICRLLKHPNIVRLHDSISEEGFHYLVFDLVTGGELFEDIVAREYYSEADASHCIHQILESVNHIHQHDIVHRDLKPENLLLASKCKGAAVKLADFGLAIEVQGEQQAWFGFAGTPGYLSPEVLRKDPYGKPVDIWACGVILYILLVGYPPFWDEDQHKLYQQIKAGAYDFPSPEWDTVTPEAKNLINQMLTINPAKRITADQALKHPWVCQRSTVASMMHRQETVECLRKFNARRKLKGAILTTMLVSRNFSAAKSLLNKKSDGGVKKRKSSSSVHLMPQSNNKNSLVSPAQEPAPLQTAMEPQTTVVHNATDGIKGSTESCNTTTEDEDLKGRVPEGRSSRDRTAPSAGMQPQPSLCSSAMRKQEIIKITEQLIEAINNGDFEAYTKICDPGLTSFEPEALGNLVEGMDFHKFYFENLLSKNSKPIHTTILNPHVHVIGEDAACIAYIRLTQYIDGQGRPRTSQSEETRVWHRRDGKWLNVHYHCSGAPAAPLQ
Sequence of MAP3K5 (Q99683 whole entry): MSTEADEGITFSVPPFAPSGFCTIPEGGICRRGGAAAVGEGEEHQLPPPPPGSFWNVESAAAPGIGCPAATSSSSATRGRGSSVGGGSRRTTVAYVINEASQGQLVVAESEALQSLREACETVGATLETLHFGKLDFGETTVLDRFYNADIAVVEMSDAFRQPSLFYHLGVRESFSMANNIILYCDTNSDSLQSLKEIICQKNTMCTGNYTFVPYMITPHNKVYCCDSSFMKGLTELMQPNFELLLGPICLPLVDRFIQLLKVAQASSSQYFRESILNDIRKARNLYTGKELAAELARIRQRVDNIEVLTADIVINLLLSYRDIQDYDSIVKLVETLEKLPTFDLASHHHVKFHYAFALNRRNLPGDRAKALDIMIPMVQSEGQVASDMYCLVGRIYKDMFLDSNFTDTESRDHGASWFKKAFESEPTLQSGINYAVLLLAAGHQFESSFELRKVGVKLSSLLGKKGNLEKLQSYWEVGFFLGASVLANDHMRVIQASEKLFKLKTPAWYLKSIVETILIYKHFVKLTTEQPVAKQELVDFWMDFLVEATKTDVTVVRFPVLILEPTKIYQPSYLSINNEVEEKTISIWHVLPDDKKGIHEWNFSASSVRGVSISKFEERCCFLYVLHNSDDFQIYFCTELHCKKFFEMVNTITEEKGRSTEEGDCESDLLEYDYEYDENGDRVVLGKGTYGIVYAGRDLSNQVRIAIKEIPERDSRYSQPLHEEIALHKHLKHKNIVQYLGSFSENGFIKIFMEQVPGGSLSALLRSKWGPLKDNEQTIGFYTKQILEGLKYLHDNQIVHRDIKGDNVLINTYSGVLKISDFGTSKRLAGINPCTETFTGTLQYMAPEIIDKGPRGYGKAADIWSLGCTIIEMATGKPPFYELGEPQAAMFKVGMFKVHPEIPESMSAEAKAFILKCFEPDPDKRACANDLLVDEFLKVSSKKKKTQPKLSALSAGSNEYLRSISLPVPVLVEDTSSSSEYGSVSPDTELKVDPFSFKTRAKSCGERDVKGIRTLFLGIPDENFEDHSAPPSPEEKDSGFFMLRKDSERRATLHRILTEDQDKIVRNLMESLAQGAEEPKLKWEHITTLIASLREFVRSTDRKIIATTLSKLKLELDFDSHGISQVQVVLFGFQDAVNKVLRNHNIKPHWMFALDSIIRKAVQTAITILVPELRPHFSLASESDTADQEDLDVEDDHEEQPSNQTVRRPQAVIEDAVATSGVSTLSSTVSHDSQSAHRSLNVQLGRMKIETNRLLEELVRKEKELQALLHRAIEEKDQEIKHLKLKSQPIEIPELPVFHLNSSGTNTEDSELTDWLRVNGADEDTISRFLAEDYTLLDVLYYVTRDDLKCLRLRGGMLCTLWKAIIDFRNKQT

One may read the inhibition as the relative decrease from the control value, in per cent. In the case of `CN1CCN(Cc2ccc(Nc3ncc(Cl)c(Nc4ccccc4S(=O)(=O)N(C)C)n3)cc2)CC1` [TP-0903], the inhibition at 0.1 µM on CCRK is 68.3%; at MAP2K3 (Activation Loop, read-out: Inhibition vs DMSO) it was -10.9%; on MAP2K3 (setting [1]), 3.4%; on MAP2K3 (setting [2]) it was 8.2%; on CDC2 (setting [1]), 2.5%; at CDC2 (setting [2]), 0.8%. Moreover, the inhibition at 0.1 µM at CDC2 (Protein Kinase Domain, read-out: Inhibition vs DMSO) was -40.6%; on PAK2 (setting [1]), -46.5%; on PAK2 (Other, read-out: Inhibition vs DMSO) it was -26.6%; at KSR1, -11%; at MAP3K5, 0.5%; at CaMK2g it was 25.8%. For the same compound, the inhibition at 0.1 µM stood at 40.8% at CaMKK2 (setting [1]), 36.1% on CaMKK2 (setting [2]) and 29.8% on GCK. Also, the “Inhibition vs DMSO” value at PKR (Activation Loop) is given as -7.5%; at PKR (Lys1), -21.9%; at PKR (Lys2) it was -21.6%; at MAP2K7, -0.0231%.
